The structures appear in SMILES notation.

Experiment [1] concerns the target T1, human TGR5 receptor (Homo sapiens, UniProt Q8TDU6).
T1 construct: host or cells: CHO-K1 (hTGR5-CHO)
T1 sequence (Q8TDU6 1-330): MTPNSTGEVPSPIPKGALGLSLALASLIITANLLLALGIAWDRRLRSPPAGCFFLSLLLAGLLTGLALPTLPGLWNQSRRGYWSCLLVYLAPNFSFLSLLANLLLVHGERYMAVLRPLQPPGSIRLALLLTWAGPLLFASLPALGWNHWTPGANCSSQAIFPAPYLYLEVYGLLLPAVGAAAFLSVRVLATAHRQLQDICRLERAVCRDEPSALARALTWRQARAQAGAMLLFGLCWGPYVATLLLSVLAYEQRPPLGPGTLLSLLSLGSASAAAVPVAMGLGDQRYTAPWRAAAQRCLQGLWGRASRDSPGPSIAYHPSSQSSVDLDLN
The experiment in a line: Human TGR5 cAMP production assay (hTGR5-CHO cells, DiscoveRx cAMP XS+ kit). It is filed as cell-based. As to conditions: luminescent cAMP assay, read-out: Human TGR5 Lum. cAMP Activity (EC50). In outline:
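CHO-K1 cells stably expressing hTGR5, in PBS with IBMX and cAMP antibody, treated with half-log compound dilutions for 1 h at room temperature. cAMP measured by enzyme-fragment complementation luminescence after overnight detection; EC50 values reported.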
Background: cAMP levels reflect the balance of adenylyl cyclase and phosphodiesterase activity.

In experiment [2] the target is T2, mouse TGR5 receptor (Mus musculus, UniProt Q80SS6).
T2 construct: host or cells: HEK293-EBNA (293 c18, ATCC CRL10852)
T2 sequence (Q80SS6 1-329): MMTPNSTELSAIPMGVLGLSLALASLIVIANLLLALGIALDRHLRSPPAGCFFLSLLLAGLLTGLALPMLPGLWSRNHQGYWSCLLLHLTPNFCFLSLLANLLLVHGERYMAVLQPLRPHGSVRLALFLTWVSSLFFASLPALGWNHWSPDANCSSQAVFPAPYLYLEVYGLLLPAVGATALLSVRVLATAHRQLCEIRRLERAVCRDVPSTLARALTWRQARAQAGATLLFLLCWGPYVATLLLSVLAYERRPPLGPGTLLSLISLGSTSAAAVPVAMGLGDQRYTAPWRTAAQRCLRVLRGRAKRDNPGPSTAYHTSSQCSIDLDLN
Nature of the experiment: Mouse TGR5 luminescent cAMP production assay (HEK293-EBNA cells, DiscoveRx cAMP XS+ kit). As to conditions: HEK293-EBNA cells overexpressing mouse TGR5, luminescent cAMP assay; read-out: Mouse TGR5 Lum. cAMP Activity (EC50). It is filed as cell-based. In a few lines:
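HEK293-EBNA cells stably expressing mouse TGR5, resuspended in serum-free DMEM with 500 μM IBMX, were premixed 20 min with cAMP antibody, then exposed to half-log compound dilutions for 1 h at room temperature. cAMP was read by luminescent enzyme-fragment complementation (cAMP XS+) after overnight incubation; EC50 derived.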

By EC50 is commonly meant the midpoint of the concentration-response curve. On to `COc1cc(-c2cc(N3CCC[C@H]3C(=O)NCCc3ccc(C#N)cc3)nc(C(F)(F)F)n2)ccn1` [Compound 160, (S)-N-(4-cyanophenethyl)-1-(6-(2-methoxypyridin-4-yl)-2-(trifluoromethyl)pyrimidin-4-yl)pyrrolidine-2-carboxamide], for which the EC50 in experiment [1] is 1000 to 30000 nM; in experiment [2], < 100 nM.

For `O=C(NCCc1ccc(C(F)(F)F)cc1)[C@@H]1CCCN(c2cc(NCCN3CCOCC3)nc(C(F)(F)F)n2)C1` [Compound 325, (R)-1-(6-((2-morpholinoethyl)amino)-2-(trifluoromethyl)pyrimidin-4-yl)-N-(4-(trifluoromethyl)phenethyl)-piperidine-3-carboxamide], the EC50 was 100 to 999 nM in experiment [1] and < 100 nM in experiment [2].

Regarding `CNCC1CCN(c2cc(N3CCC[C@H]3C(=O)NCCc3ccc(C#N)cc3)nc(C(F)(F)F)n2)CC1` [Compound 49], the EC50 in experiment [1] and in experiment [2] was 100 to 999 nM each time.

With `N#Cc1ccc(CCNC(=O)[C@@H]2CCCN2c2cc(-c3csc(C(=O)O)c3)nc(C(F)(F)F)n2)cc1` [Compound 178, (S)-4-(6-(2-((4-cyanophenethyl)carbamoyl)pyrrolidin-1-yl)-2-(trifluoromethyl)pyrimidin-4-yl)thiophene-2-carboxylic acid], the half-maximal effective concentration (EC50) is 1000 to 30000 nM in experiment [1] and < 100 nM in experiment [2].

Turning to `CC(C)(C)OC(=O)NC1CCN(c2cc(N3CCC[C@H]3C(=O)NCCc3ccc(C#N)cc3)nc(C(F)(F)F)n2)CC1` [Compound 16], the EC50 in experiment [1] is 100 to 999 nM; in experiment [2], < 100 nM.

With `O=C(NCCc1ccc(C(F)(F)F)cc1)[C@@H]1CCCN(c2cc(N3CCNCC3)nc(C(F)(F)F)n2)C1` [Compound 327, (R)-1-(6-(piperazin-1-yl)-2-(trifluoromethyl)pyrimidin-4-yl)-N-(4-(trifluoromethyl)phenethyl)piperidine-3-carboxamide], the values for the concentration giving a half-maximal response (EC50) in experiment [1] and in experiment [2] were 1000 to 30000 nM and 100 to 999 nM, respectively.

Take `N#Cc1ccc(CCNC(=O)[C@@H]2CCCN2c2cc(-c3ccncc3)nc(C(F)(F)F)n2)cc1` [Compound 141, (S)-N-(4-cyanophenethyl)-1-(6-(pyridin-4-yl)-2-(trifluoromethyl)pyrimidin-4-yl)pyrrolidine-2-carboxamide]: the half-maximal effective concentration (EC50) in experiment [1] and in experiment [2] was 100 to 999 nM in each case.

As to `COCC(=O)N1CCN(c2cc(N3CCC[C@@H](C(=O)NCCc4ccc(C(F)(F)F)cc4)C3)nc(C(F)(F)F)n2)CC1` [Compound 337, (R)-1-(6-(4-(2-methoxyacetyl)piperazin-1-yl)-2-(trifluoromethyl)pyrimidin-4-yl)-N-(4-(trifluoromethyl)phenethyl)piperidine-3-carboxamide], the results for the EC50 in experiment [1] and in experiment [2] were 100 to 999 nM and < 100 nM, respectively.

Take `N#Cc1ccc(CCNC(=O)[C@@H]2CCN2c2cc(OC3CCOCC3)nc(C(F)(F)F)n2)cc1` [Compound 242, (S)—N-(4-cyanophenethyl)-1-(6-((tetrahydro-2H-pyran-4-yl)oxy)-2-(trifluoromethyl)pyrimidin-4-yl)azetidine-2-carboxamide]: the half-maximal effective concentration (EC50) in experiment [1] was 100 to 999 nM; in experiment [2] it was < 100 nM.

Turning to `N#Cc1ccc(CCNC(=O)[C@@H]2CCN2c2cc(-c3ccc(CO)cc3)nc(C(F)(F)F)n2)cc1` [Compound 304, (S)-N-(4-cyanophenethyl)-1-(6-(4-(hydroxymethyl)phenyl)-2-(trifluoromethyl)pyrimidin-4-yl)azetidine-2-carboxamide], the EC50 in experiment [1] and in experiment [2] was 100 to 999 nM throughout.

For the compound `CC(C)(C)OC(=O)N1CCC(Oc2cc(N3CCC[C@H]3C(=O)NCCc3ccc(C#N)cc3)nc(C(F)(F)F)n2)CC1` [Compound 45, (S)-tert-butyl 4-((6-(2-((4-cyanophenethyl)carbamoyl)pyrrolidin-1-yl)-2-(trifluoromethyl)pyrimidin-4-yl)oxy)piperidine-1-carboxylate], the figures for the concentration for a half-maximal effect (EC50) in experiment [1] and in experiment [2] were 100 to 999 nM and < 100 nM, respectively.

As for `N#Cc1ccc(CCNC(=O)[C@@H]2CCCN2c2cc(-c3ccc4[nH]ccc4c3)nc(C(F)(F)F)n2)cc1` [Compound 157, (S)-1-(6-(1H-indol-5-yl)-2-(trifluoromethyl)pyrimidin-4-yl)-N-(4-cyanophenethyl)pyrrolidine-2-carboxamide], the figures for the concentration giving a half-maximal response (EC50) in experiment [1] and in experiment [2] were 100 to 999 nM and < 100 nM, respectively.

As for `O=C(NCCc1ccc(C(F)(F)F)cc1)[C@@H]1CCCN1c1cc(NCc2cccnc2)nc(C(F)(F)F)n1` [Compound 4], the 50% effective concentration (EC50) in experiment [1] fell in the range of 1000 to 30000 nM; in experiment [2], 100 to 999 nM.

`N#Cc1ccc(CCNC(=O)[C@@H]2C[C@@H](O)CN2c2cc(N3CCC(CO)CC3)nc(C(F)(F)F)n2)cc1` [Compound 211, (2S,4R)-N-(4-cyanophenethyl)-4-hydroxy-1-(6-(4-(hydroxymethyl)piperidin-1-yl)-2-(trifluoromethyl)pyrimidin-4-yl)pyrrolidine-2-carboxamide]: the 50% effective concentration (EC50) in experiment [1] and in experiment [2] was 100 to 999 nM each time.

Regarding `CC(C)(C)OC(=O)NCC1CCN(c2cc(N3CCC[C@H]3C(=O)NCCc3ccc(C#N)cc3)nc(C(F)(F)F)n2)CC1` [Compound 17], the EC50 in experiment [1] and in experiment [2] was 100 to 999 nM each time.

In the case of `COCCOc1cc(N2CCC[C@H]2C(=O)NCCc2ccc(C(F)(F)F)cc2)nc(C(F)(F)F)n1` [Compound 42, (S)-1-(6-(2-methoxyethoxy)-2-(trifluoromethyl)pyrimidin-4-yl)-N-(4-(trifluoromethyl)phenethyl)pyrrolidine-2-carboxamide], the EC50 in experiment [1] and in experiment [2] was 100 to 999 nM each time.

For the compound `COc1cc(-c2cc(N3CCC[C@H]3C(=O)NCCc3ccc(C#N)cc3)nc(C(F)(F)F)n2)c(Cl)cn1` [Compound 161, (S)-1-(6-(5-chloro-2-methoxy-pyridin-4-yl)-2-(trifluoromethyl)pyrimidin-4-yl)-N-(4-cyanophenethyl)pyrrolidine-2-carboxamide], the EC50 in experiment [1] is 1000 to 30000 nM; in experiment [2] it was < 100 nM.

In the case of `CC(=O)N(C)CC1CCN(c2cc(N3CCC[C@H]3C(=O)NCCc3ccc(C#N)cc3)nc(C(F)(F)F)n2)CC1` [Compound 54, (S)-N-(4-cyanophenethyl)-1-(6-(4-((N-methylacetamido)methyl)piperidin-1-yl)-2-(trifluoromethyl)pyrimidin-4-yl)pyrrolidine-2-carboxamide], the half-maximal effective concentration (EC50) in experiment [1] is 100 to 999 nM; in experiment [2], < 100 nM.

Take `N#Cc1ccc(CCNC(=O)[C@@H]2CCCN2c2cc(-c3ccc(CN4CCOCC4)s3)nc(C(F)(F)F)n2)cc1` [Compound 168, (S)-N-(4-cyanophenethyl)-1-(6-(5-(morpholinomethyl)thiophen-2-yl)-2-(trifluoromethyl)pyrimidin-4-yl)pyrrolidine-2-carboxamide]: the EC50 in experiment [1] lay within 1000 to 30000 nM; in experiment [2] it was 100 to 999 nM.

Consider `CC(C)(C)OC(=O)N1CCC(Nc2cc(N3CCC[C@H]3C(=O)NCCc3ccc(C#N)cc3)nc(C(F)(F)F)n2)CC1` [Compound 15], for which the results for the EC50 in experiment [1] and in experiment [2] were 1000 to 30000 nM and < 100 nM, respectively.

Consider `N#Cc1ccc(CCNC(=O)[C@@H]2CCCN2c2cc(-c3ccc(S(=O)(=O)N4CCOCC4)cc3)nc(C(F)(F)F)n2)cc1` [Compound 154, (S)-N-(4-cyanophenethyl)-1-(6-(4-(morpholinosulfonyl)phenyl)-2-(trifluoromethyl)pyrimidin-4-yl)pyrrolidine-2-carboxamide], for which the EC50 in experiment [1] lay within 1000 to 30000 nM; in experiment [2], 100 to 999 nM.

These data come from patent US10654834B2 (Venenum Biodesign, LLC, priority 2016, dated 2020).
